From a melting point compilation (Tetko et al.; mined from patent text by program, amines drawn as free bases though some values may be those of a salt)

SMILES | melting point
CN(C)C1CC=C(c2c[nH]c3ccc([N+](=O)[O-])cc23)CC1 (stereo not drawn) | 234 to 236 °C
CCS(=O)(=O)ON=C(Cl)c1ccc(F)cc1 | 39 to 41.5 °C
CC(C)(CCCCC(=O)CCCCC1(C(=O)O)CC1)C(=O)O | 49 to 52 °C
CC(C)(C)c1cc(-c2cc(C(C)(C)C)cc(C(C)(C)C)c2O)c(O)c(C(C)(C)C)c1 | 190 to 195 °C
CC(CCN)P(C)(=O)O (stereo not drawn) | 68 to 75 °C
CC(=O)N(C)c1c(I)c(NC(=O)CS(=O)(=O)CC(=O)O)c(I)c(C(=O)O)c1I | > 300 °C
Cc1c(OCC#N)cc2c(c1Cl)C(=O)C1(CCCC1)C2=O | 137 to 139 °C
O=C(O)CCN1CCN(c2ccc([N+](=O)[O-])cc2)CC1 | 250 to 252 °C
OCc1cccc(-n2cccc2)c1 | 64 to 67 °C
COc1ccc(CCc2ccc(N)cc2)cc1OC | 115 to 116 °C
O=C1NC(=O)C2(CCCN3CCN(c4ccc(Cl)cc4)CC3)C=CC=CC12 (stereo not drawn) | 120 °C
O=S(=O)(c1ccc(F)cc1)c1ccc(SC2SCC(O)C(O)C2O)cc1 (stereo not drawn) | 136 to 138 °C
OCC1(c2ccc(Cl)cc2)CCN(CCC(c2ccccc2)(c2ccccc2)c2ccccc2)CC1 | 156 to 158 °C
O=C(O)c1cc(C#Cc2ccccc2)cc2c1NCCC2 | 187 to 188 °C
COc1cc(SC)c(C)cc1OCCBr | 66 to 67 °C
CN1C(=O)CC(c2ccc(-c3ccc(F)cc3)cc2)C1C(O)c1ccc(-c2ccccc2)s1 (stereo not drawn) | 191 to 193 °C
CCCc1ccc(CCCC(P(=O)(O)O)P(=O)(O)O)cc1 | 200 to 202 °C
Cc1cc(C(N)=O)ncc1C(c1c(F)ccc(F)c1F)S(=O)(=O)CCC(F)(F)C(F)(F)F (stereo not drawn) | 155 to 156 °C
Cn1c(COc2ccc(CC3SC(=O)N(C(c4ccccc4)(c4ccccc4)c4ccccc4)C3=O)cc2)nc2cncnc21 (stereo not drawn) | 55 to 65 °C
CC1(C)Cc2ccccc2C1NC=NC#N (stereo not drawn) | 164 to 167 °C

SMILES | melting point
CC(=O)C1(C)COC(c2ccc([N+](=O)[O-])cc2)OC1 (stereo not drawn) | 101 to 102 °C
O=[N+]([O-])c1ccc(C2SCCS2)cc1 | 80 to 82 °C
CNC(=S)n1nc(-c2ccc(Cl)nc2)nc1N | 208 to 211 °C
Fc1ccc(-c2nc(-c3ccccn3)cs2)cc1 | 140 to 144 °C
Cc1nc2cc(C(F)(F)F)c(Cl)c([N+](=O)[O-])c2n1N(C)C | 160 to 162 °C
CC(OC(=O)Nc1ccc(-c2ncn(-c3ccc(C(F)(F)F)cc3)n2)cc1)c1ccc(C(F)(F)F)cc1 (stereo not drawn) | 156 to 158 °C
O=CNc1ccsc1I | 100 to 107 °C
O=C1C=CC(=C(c2ccccc2)c2ccccc2)O1 | 110 to 112 °C
Nc1ccc(OCCCCCC(=O)OCCOCCOC(=O)CCCCCOc2ccc(N)cc2)cc1 | 56 to 58 °C
Nc1ccc(N2CCOC2=O)c(Cl)c1 | 151 to 153 °C
C[C@H](Cn1ncnn1)n1nnc2cc3c(=O)n(C4CC4)nnc3cc2c1=O | 190 to 192 °C
Oc1ccc(-c2cccnc2)cc1O | 288 to 290 °C
CNC(=O)Nc1snc(C)c1[N+](=O)[O-] | 249 to 251 °C
Fc1ccc(-c2[nH]nc(C3=C[C@@H]4C[C@@H](c5ccccc5)CN4CC3)c2-c2ccncc2)cc1Cl | 179 to 180 °C
N#Cc1ccc(NC(=O)c2ccnc(SCc3ccc(F)cc3)c2)cc1 | 160 to 162 °C
CN1c2ccc(Cl)cc2C(c2ccccc2)=NCC1CN1CCCCC1 (stereo not drawn) | 143 to 145 °C
O=[N+]([O-])c1ccc(Sc2ncc[nH]2)cc1 | 207 to 209 °C
Nc1c(C(F)(F)F)cnn1-c1c(Cl)cc(C(F)(F)F)cc1Cl | 106 °C
NC(=O)N1CCN(CC(=O)N2CCOCC2)CC1 | 165 °C
COc1ccc(-c2cc3ccc(C(=O)O)cc3s2)cc1C12CC3CC(CC(C3)C1)C2 | 305 °C

Second part, the compound after the results:

melting point | SMILES
127 to 128 °C | O=C1CN(c2ccccc2)C(=O)N1C(=O)c1ccccc1Oc1ccccc1
181 °C | CC(C)N1CCN(c2ccc(Nc3cc(-c4ccc5c(CCO)cn(C)c5c4)c(Cl)n4ccnc34)nc2)CC1
170 to 171 °C | CCOC(=O)NC(=O)C(C#N)=CNc1cccc(F)c1
> 260 °C | O=C(Nc1nnc(-c2ccc(Cl)cc2)s1)c1c(Cl)cccc1Cl
> 300 °C | CC(=O)Oc1n[nH]c(=O)c2nc3cc(Cl)ccc3c(O)c12
160 °C | CC(C)(C)C(=O)OCCc1c(-c2ccccc2)nc(N)n2ncnc12
58 to 59 °C | CCOC(=O)c1ccccc1C(=O)c1ccc2c(c1)C(C)(C)CCC2(C)C
244 to 245 °C | CC(C)(CC(O)(C(=O)O)C(F)(F)F)c1ccc(C(N)=O)cc1 (stereo not drawn)
75 to 76 °C | Cc1cccc2cc3c(=O)n(CCOC(=O)NCCN(C)C)cc(C(=O)NCCN(C)C)c3nc12
138 to 142 °C | Cc1ccc(C(=O)N(C)C)cc1-c1nc(NCCN(C)C)nc2c1CNC(=O)N2c1c(F)cccc1F
175 to 176 °C | Cc1c(CC(=O)O)c2cc(OCc3nc4ccccc4s3)ccc2n1Cc1ccc(Cl)cc1
81 to 83 °C | Cc1nc(C)c(-c2ccnc(Nc3ccc(C)c(S(=O)(=O)N4CCOCC4)c3)n2)s1
145 to 146 °C | Cc1c(CC(=O)O)c2cc(OCc3csc(-c4ccc(Cl)cc4)n3)ccc2n1Cc1ccc(Cl)cc1
120 to 125 °C | CNC(=O)NC(C)C(C)CC(=O)NS(=O)(=O)c1ccc(C)cc1 (stereo not drawn)
104 to 106 °C | Cc1ccc(S(=O)(=O)OC2CCc3c(c4ccccc4n3C)C2)cc1 (stereo not drawn)
146 to 152 °C | CCN(CCCc1c[nH]c2c(Cl)cccc12)C1COc2c(F)ccc(C(N)=O)c2C1 (stereo not drawn)
143 to 144 °C | COc1cc(OC)cc(N2CCN(C(=O)N(C)c3nc4ccccc4nc3OC)CC2)c1
233 °C | NS(=O)(=O)c1cccc(NC(=O)c2cnn3c(C(F)(F)F)cc(-c4ccc(C(F)(F)F)c(OCC(F)(F)F)c4)nc23)c1
243 to 245 °C | Cc1ccc(C2(c3ccc(C)cc3)CCN=C2NC(=O)c2cc(C)n[nH]2)cc1
107 to 109 °C | CS(=O)(=O)Nc1ccc(CNC(=O)c2cccnc2Oc2ccc(F)cc2)cc1

melting point | SMILES
117 to 120 °C | COc1ccc(N2CCN(c3c(C)c(C)c4c(c3C)CC(C)(Cn3cccn3)O4)CC2)cc1 (stereo not drawn)
180 to 182 °C | COC(=O)c1nc2cccc(C(F)(F)F)c2c(O)c1C(=O)OC
218 to 220 °C | O=C(NCC1CC1)Nc1ccc(N2CCOCC2)cc1C(=O)NCC1CCN(C(c2ccccc2)c2ccccc2)CC1
126 to 127 °C | CCCCNc1cc(-c2ccccc2)nc2onc(C)c12
218 °C | CC1=C(C#N)C(c2cccc3nc(-c4ccccc4)sc23)C(C(=O)OC(C)C)=C(C)N1 (stereo not drawn)
94 to 96 °C | C#CCOC(=O)Oc1ccc2ccc(OC(=O)OCC#C)cc2c1
189 to 190 °C | Nc1ncc(-c2cccc3ccc(Br)cc23)o1
57 to 58 °C | CCOC(=O)CCCCc1ccc(OCc2nc(-c3ccccc3)oc2C)cc1
171 to 188 °C | CCN1CCc2ccc(OC)c(Nc3ncc(Cl)c(Nc4ccccc4S(=O)(=O)NC)n3)c2CC1
198 to 199 °C | O=S(=O)(c1ccc(O)cc1)c1ccc(O)c2ccccc12
207 to 208 °C | COc1cc(C(=O)NS(=O)(=O)c2ccccc2C)ccc1CN1CCOc2ccc(NC(=O)CC3CCCC3)cc21
100 to 102 °C | Cc1ccc(CSC2=C(O)CC(C)(C)CC2=O)cc1
73 to 75 °C | COC(=O)Cc1ccccc1N(Cc1ccc(Cl)cc1)S(C)(=O)=O
181 to 184 °C | Cc1ccc(C)c(Sc2ccc(C#N)cc2S(=O)(=O)N2CCOCC2)c1
88.5 to 90 °C | CC(C)(C)OC(=O)CCc1ccc(C[C@H](NC(=O)OC(C)(C)C)C(=O)O)cc1
46 to 47 °C | COc1cccc(C(C)(C)C(=O)O)c1
149 °C | CCOC(=O)N1CCC(Nc2nc3cccnc3n2Cc2ccco2)CC1
> 300 °C | COC(=O)Oc1nc2c(N)ncnc2n1Cc1ccccc1
187 to 189 °C | CCc1cccc2c3c([nH]c12)C(CC)(CC(=O)OC)OCC3=O (stereo not drawn)
74 to 75 °C | CCCCCCCCCOc1cc([N+](=O)[O-])ccc1N

melting point | SMILES
166 to 167 °C | COCCOc1cc(N)c(S(C)(=O)=O)cc1[N+](=O)[O-]
68 to 69 °C | COC(=O)c1cccc(Oc2cccc(Br)n2)c1
91 to 93 °C | CCCc1c(OCCCCCCc2cccc(OCCCCCCC(=O)O)c2CCC(=O)O)ccc2c1OCCC2=O
146 to 148 °C | COc1nc(Br)c(C)nc1NS(=O)(=O)c1cccc(Cl)c1Cl
118 to 120 °C | CN(O)C(=O)Cc1ccc2c(c1)C(=O)c1ccccc1CO2
178 °C | Cc1ccc(Sc2c(-c3ccc(S(C)(=O)=O)cc3)cnn(-c3cccc(Cl)c3)c2=O)cc1
174 °C | COc1ccc(-c2nc(N)ncc2-c2ccc(=O)n(C(C)C)n2)cc1F
224 °C | CCOc1cc(-c2cc(C(F)(F)F)nc(-c3ccnc(-c4cccc(S(N)(=O)=O)c4)c3)n2)ccc1C(F)(F)F
147 to 148 °C | CCOc1nn(-c2ccc(C(F)(F)F)cn2)cc1CCCOc1cc(OC)ccc1CC(=O)O
> 240 °C | CCn1ncc2c(NCc3cccc(O)c3)c3ccccc3nc21
226 to 228 °C | Cc1nc(-c2ccc(C(F)(F)F)cc2)sc1COc1ccc(/C=C/C(=O)O)cc1
55 to 80 °C | CCCCNCc1ccc2cc(OC)ccc2c1
134 °C | CC(=O)c1cc(-c2ccc(C(C)(C)C)cc2)c2c(c1)C(C)(C)CCC2(C)C
75 °C | COC(=O)CCCc1cc2nc(Cl)ccc2n1S(=O)(=O)c1ccc(C(C)C)cc1
185 to 187 °C | COc1c(C=CC(=O)c2ccc(O)cc2)ccc(O)c1C
89 to 90.5 °C | Cc1ccc(CS(=O)C2=C(O)CC(C)(C)CC2=O)cc1 (stereo not drawn)
158 to 160 °C | CC(C)c1cccc(C(C)C)c1NC(=O)CN1CC2(CCCCC2)N(c2ccccc2)CC1=O
173 to 175 °C | CC(C)(C)Sc1c(CC(C)(C)C(=O)O)n(Cc2ccc(Cl)cc2)c2ccc(OCc3cnccn3)cc12
